Assay results as given in US4025556A, “Quaternary ammonium-hydroxyaryl compounds” (Ciba-Geigy AG, priority 1967, dated 1977).

Tests used:
Type in all cases: cell-based
[1] = tested on: Trichophyton mentagrophytes; test: Minimal inhibitory concentration (MIC), gradient plate test, fungistasis; settings: Mycophil-Agar, 72 hours at 30° C
Text: (§1) Measuring the minimal inhibitory concentration (MIC) towards bacteria and fungi in the gradient plate test
(§2) The compounds of the formula (1) in suitable formulations (for example as solutions in dimethylsulphoxide) of certain concentrations are mixed with warm brain heart infusion agar (bacteria) and Mycophil-Agar (fungi). The liquid mixtures are poured over a solidified, wedge-shaped basic agar layer and likewise allowed to solidify.
(§3) The test organisms are then applied by means of a Pasteur pipette in lines at right angles to the gradient. After an incubation period of 24 hours at 37° C. (bacteria) and 72 hours at 30° C. (fungi) the length of the germs grown on the inoculation line is measured and expressed in parts per million of active substance.

Aspergillus niger [2] = test: as above; settings: Mycophil-Agar, 72 hours at 30° C
Text: as §1, §2, §3

Staphylococcus aureus [3] = test: Minimal inhibitory concentration (MIC), gradient plate test, bacteriostasis; settings: brain heart infusion agar, 24 hours at 37° C
Text: as §1, §2, §3

Escherichia coli = test: as above; settings: brain heart infusion agar, 24 hours at 37° C
Text: as §1, §2, §3

Aspergillus niger [4] = test: Fungicidal activity of impregnated paper (agar plate, inhibitory zone and growth); settings: paper with 1% of active substance, 72 hours at 30° C
Experimental: (§4) Crude paper, which consists of 90% of bleached sulphite cellulose and 10% of birch pulp, is impregnated in a sizing press with a 2.5% solution of the compound of the formula (11) in methanol+water 2:1 to a weight increase of 40%.
(§5) The dried paper contains 1% of active substance referred to its original weight.
For testing its fungicidal activity round blanks of 25 mm diameter are placed on Mycophil-Agar plates and inoculated with Aspergillus niger, and the plates are incubated for 72 hours at 30° C.
(§6) The evaluation extends, on one hand, to the inhibitory zone (IZ in mm) around the paper blanks and, on the other hand, to the microscopically discernible growth (G in %) underneath and/or on the blanks: […]

Staphylococcus aureus [5] = test: Activity of impregnated fabrics against bacteria (agar plate, inhibitory zone and growth)
Experimental: (§7) Samples of C. 100 g each of cotton creton are impregnated on a padder with a 1% solution of one of the compounds of the formula (1) in isopropanol at 20° C and then squeezed to a weight increase of 100%.
(§8) Samples of 100 g each of wool cheviot were treated in an identical manner.
(§9) After having been dried at 30° to 40° C. the fabrics contain 1% of active substance referred to their own weight.
To test the activity against bacteria round blanks of 10 mm diameter of the impregnated fabrics, one half of which untreated and the other after having been watered for 24 hours at 29° C., are placed on brain infusion agar plates previously inoculated with Staphylococcus aureus. The plates are then incubated for 24 hours at 37° C.
(§10) The evaluation extends, on one hand, to the inhibitory zones (IZ in mm) around the blanks and, on the other hand, on the growth (G in %) detected under a microscope underneath and/or on the fabric: […]

Aspergillus niger [6] = test: Minimal inhibitory concentration (MIC), dilution test, fungistasis; settings: beerwort solution, 72 hours at 30° C
Experimental: (§11) Measuring the minimal inhibitory concentration (MIC) against bacteria and fungi in the dilution test
(§12) The minimal inhibitory concentration (MIC) is measured by a test derived from standardized methods which makes available an approximation to absolute minimal inhibitory values of an active substance.
(§13) A solution of 0.4% and 0.12% strength each in dimethylsulphoxide is prepared with the active substances. 0.25 ml of each of these solutions is added to 9.75 ml of sterile brain heart infusion broth (bacteria) and beerwort solution (fungi) respectively. By continual dilution to 10 times the volume two series are obtained which are combined and thereby converted into the following continuous dilution series:
(§14) 100, 30, 10, 3, 1 . . . part per million of active substance.
(§15) The solutions are inoculated with the bacterium Staphylococcus aureus and with fungi Aspergillus niger and Rhizopus nigricans respectively. Then incubation is performed for 48 hours at 37° C. (bacteriostasis) with Staphylococcue aureus and for 72 hours at 30° C. (fungistasis)with the fungi.

Rhizopus nigricans = test: as above; settings: beerwort solution, 72 hours at 30° C
Experimental: as §11, §12, §13, §14, §15

Staphylococcus aureus [7] = test: Antibacterial properties of impregnated paper (agar plate, inhibitory zone and growth); settings: paper with 1% of active substance, 24 hours at 37° C
Text: as §4, §5
To test its antibacterial properties round blanks of 10 mm diameter of the impregnated paper are placed on brain heart infusion agar plates previously inoculated with Staphylococcus aureus, and the plates are then incubated for 24 hours at 37° C.
as §6

Aspergillus niger [8] = test: Activity of impregnated fabrics against fungi (agar plate, inhibitory zone and growth)
Experimental: as §7, §8, §9
To test the activity against fungi round blanks of 25 mm diameter are placed on beerwort agar plates and then inoculated with Aspergillus niger, and the plates are then incubated for 72 hours at 30° C.
as §10

Staphylococcus aureus [9] = test: Minimal inhibitory concentration (MIC), dilution test, bacteriostasis; settings: brain heart infusion broth, 48 hours at 37° C
Experimental: as §11, §12, §13, §14, §15

[10] = cotton with 1% of active substance, untreated
[11] = wool with 1% of active substance, untreated

| Compound | Minimal inhibitory concentration, fungistasis, Trichophyton mentagrophytes [1] | Minimal inhibitory concentration, fungistasis, Aspergillus niger (Aspergillus niger [2]) | Minimal inhibitory concentration, bacteriostasis, Staphylococcus aureus (Staphylococcus aureus [3]) | Minimal inhibitory concentration, bacteriostasis, Escherichia coli (Escherichia coli) | inhibitory zone (IZ) (Aspergillus niger [4]) | inhibitory zone (IZ) (Staphylococcus aureus [5]; [10]) | inhibitory zone (IZ) (Staphylococcus aureus [5]; cotton with 1% of active substance, watered 24 hours at 29° C) | inhibitory zone (IZ) (Staphylococcus aureus [5]; [11]) | inhibitory zone (IZ) (Staphylococcus aureus [5]; wool with 1% of active substance, watered 24 hours at 29° C) | Inhibitory values in ppm in fungistasis, Aspergillus niger (MIC) (Aspergillus niger [6]) | Inhibitory values in ppm in fungistasis, Rhizopus nigricans (MIC) (Rhizopus nigricans) | inhibitory zone (IZ) (Staphylococcus aureus [7]) | inhibitory zone (IZ) (Aspergillus niger [8]; [10]) | inhibitory zone (IZ) (Aspergillus niger [8]; cotton with 1% of active substance, watered) | inhibitory zone (IZ) (Aspergillus niger [8]; [11]) | inhibitory zone (IZ) (Aspergillus niger [8]; wool with 1% of active substance, watered) | Inhibitory values in ppm in bacteriostasis, Staphylococcus aureus (MIC) (Staphylococcus aureus [9]) |
| --- | --- | --- | --- | --- | --- | --- | --- | --- | --- | --- | --- | --- | --- | --- | --- | --- | --- |
| CCCCCCCCCCCC[N+](CCO)(CCO)Cc1ccccc1.[O-]c1cccc2cccnc12 [L] | 6 ppm | 6 ppm | 3 ppm | 20 ppm |  |  |  |  |  |  |  |  |  |  |  |  |  |
| benzyl-bis-(2-hydroxyethyl)-dodecyl ammonium pentachlorophenolate |  |  |  |  | 1 mm | 6 mm | 5 mm | 6 mm | 3 mm | 10 ppm | 10 ppm | 2.5 mm | 7 mm | 4 mm | 0 mm | 0 mm | 10 ppm |
